Measurements as given in patent US12410208B2, “(2-acetamidyl)thio-beta-D-galactopyranoside derivatives” (Idorsia Pharmaceuticals Ltd, priority 2020, dated 2025).
Where two headings read alike, the source gives them in different places.

Assays:
human Gal-1 (hGal-1) = human Gal-1 (hGal-1) (Homo sapiens, UniProt P09382); assay: Competitive binding assay: biotinylated hGal-1 binding to microplate-adsorbed asialofetuin (ASF), spectrophotometric; conditions: hGal-1 binding to asialofetuin; Table 15; R and S epimers of selected Examples also listed; read-out: IC50 (Galectin-1 inhibition)
Chain of human Gal-1 (hGal-1) (P09382 whole entry): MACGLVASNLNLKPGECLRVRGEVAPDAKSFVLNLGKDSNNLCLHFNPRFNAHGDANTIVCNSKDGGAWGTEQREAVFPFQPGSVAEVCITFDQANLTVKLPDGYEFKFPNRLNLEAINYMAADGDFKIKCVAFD
How it was run: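 Biotinylated hGal-1 (300-1000 ng/mL) incubated with compound on asialofetuin-coated plates 3 hours at 4 °C, washed, then streptavidin-peroxidase (80 ng/mL) 1 hour at 4 °C. ABTS substrate read spectrophotometrically; IC50 reported as mean of several measurements.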

[1] = target: biotinylated human Gal-3 (hGal-3) (Homo sapiens, UniProt P17931); assay: Competitive binding assay: biotinylated hGal-3 binding to microplate-adsorbed asialofetuin (ASF), spectrophotometric
Chain of biotinylated human Gal-3 (hGal-3) (P17931 whole entry): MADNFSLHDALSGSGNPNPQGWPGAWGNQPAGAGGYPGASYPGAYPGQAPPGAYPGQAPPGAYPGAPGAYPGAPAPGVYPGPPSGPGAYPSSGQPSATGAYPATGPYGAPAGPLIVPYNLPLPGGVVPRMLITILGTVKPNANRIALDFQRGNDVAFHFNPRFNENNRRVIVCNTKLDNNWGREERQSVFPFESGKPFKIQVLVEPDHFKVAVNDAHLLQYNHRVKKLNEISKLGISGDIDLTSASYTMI
How it was run: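 Competitive binding of biotinylated hGal-3 to plate-adsorbed asialofetuin was measured with serially diluted compounds over 3 h at 4° C. Bound protein was detected with streptavidin-peroxidase and ABTS substrate by absorbance. IC50 values are means of several measurements.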

[2] = Gal-3 inhibition, Table 5, read-out: IC50
[3] = Table 6, hGal-3, read-out: IC50 (Gal-3 inhibition)
[4] = Table 12, hGal-3, read-out: IC50 (Gal-3 inhibition)

Molecule	IC50 (human Gal-1 (hGal-1)) [nM]	IC50 [1, 2] [nM]	also measured
CN(CC(F)(F)F)C(=O)[C@@H](S[C@@H]1O[C@H](CO)[C@H](O)[C@H](n2cc(-c3cc(F)c(F)c(F)c3)nn2)[C@H]1O)C1(O)CCC1 [Example 2.34.219S., (S)-2-(((2S,3R,4S,5R,6R)-3,5-Dihydroxy-6-(hydroxymethyl)-4-(4-(3,4,5-trifluorophenyl)-1H-1,2,3-triazol-1-yl)tetrahydro-2H-pyran-2-yl)thio)-2-(1-hydroxycyclobutyl)-N-methyl-N-(2,2,2-trifluoroethyl)acetamide]	120	110	
CC(C)CN(C)C(=O)C(S[C@@H]1O[C@H](CO)[C@H](O)[C@H](n2cc(-c3cc(F)c(F)c(F)c3)nn2)[C@H]1O)C1(O)CCOCC1 (stereo partly drawn) [Example 2.41.200., 2-(((2S,3R,4S,5R,6R)-3,5-Dihydroxy-6-(hydroxymethyl)-4-(4-(3,4,5-trifluorophenyl)-1H-1,2,3-triazol-1-yl)tetrahydro-2H-pyran-2-yl)thio)-2-(4-hydroxytetrahydro-2H-pyran-4-yl)-N-isobutyl-N-methylacetamide]	260		IC50 ([1]; Gal-3 inhibition, Table 2, read-out: IC50): 60 nM
O=C(C(S[C@@H]1O[C@H](CO)[C@H](O)[C@H](n2cc(-c3cc(F)c(F)c(F)c3)nn2)[C@H]1O)C1(O)CCCCC1)N1CCCCC1 (stereo partly drawn) [Example 2.39.208., 2-(((2S,3R,4S,5R,6R)-3,5-Dihydroxy-6-(hydroxymethyl)-4-(4-(3,4,5-trifluorophenyl)-1H-1,2,3-triazol-1-yl)tetrahydro-2H-pyran-2-yl)thio)-2-(1-hydroxycyclohexyl)-1-(piperidin-1-yl)ethan-1-one]	70	20	
CCN(C(=O)[C@@H](S[C@@H]1O[C@H](CO)[C@H](O)[C@H](n2cc(-c3cc(F)c(F)c(F)c3)nn2)[C@H]1OC)C1(O)CCC(F)(F)CC1)C1CC1 [Example 2.44.238S.I.]	30		IC50 ([1]; Table 10, hGal-3, read-out: IC50 (Gal-3 inhibition)): 20 nM
CCN(C)C(=O)[C@H](S[C@@H]1O[C@H](CO)[C@H](O)[C@H](n2cc(-c3cc(F)c(F)c(F)c3)nn2)[C@H]1O)C1(O)CCN(C(=O)NC2CC2)CC1 [Example 2.49.203R., (R)-N-Cyclopropyl-4-(1-(((2S,3R,4S,5R,6R)-3,5-dihydroxy-6-(hydroxymethyl)-4-(4-(3,4,5-trifluorophenyl)-1H-1,2,3-triazol-1-yl)tetrahydro-2H-pyran-2-yl)thio)-2-(ethyl(methyl)amino)-2-oxoethyl)-4-hydroxypiperidine-1-carboxamide]	4430		IC50 ([1]; Table 8, hGal-3, read-out: IC50 (Gal-3 inhibition)): 2650 nM
CN(Cc1ccccc1)C(=O)[C@H](S[C@@H]1O[C@H](CO)[C@H](O)[C@H](n2cc(-c3cc(F)c(F)c(F)c3)nn2)[C@H]1O)C1(O)CCOCC1 [Example 2.41.207R., (R)-N-Benzyl-2-(((2S,3R,4S,5R,6R)-3,5-dihydroxy-6-(hydroxymethyl)-4-(4-(3,4,5-trifluorophenyl)-1H-1,2,3-triazol-1-yl)tetrahydro-2H-pyran-2-yl)thio)-2-(4-hydroxytetrahydro-2H-pyran-4-yl)-N-methylacetamide]	51500		IC50 ([1]; Gal-3 inhibition, Table 4, read-out: IC50): 8230 nM
CCN(C)C(=O)C(S[C@@H]1O[C@H](CO)[C@H](O)[C@H](n2cc(-c3cc(F)c(F)c(F)c3)nn2)[C@H]1O)C(O)c1ccn(C)n1 (stereo partly drawn) [Example 2.65.203., 2-(((2S,3R,4S,5R,6R)-3,5-dihydroxy-6-(hydroxymethyl)-4-(4-(3,4,5-trifluorophenyl)-1H-1,2,3-triazol-1-yl)tetrahydro-2H-pyran-2-yl)thio)-N-ethyl-3-hydroxy-N-methyl-3-(1-methyl-1H-pyrazol-3-yl)propanamide]	3050		IC50 ([1]; Gal-3 inhibition, Table 7, read-out: IC50): 650 nM
CCN(C)C(=O)C(S[C@@H]1O[C@H](CO)[C@H](O)[C@H](n2cc(-c3cc(F)c(F)c(F)c3)nn2)[C@H]1O)C(O)(CC)CC (stereo partly drawn) [Example 2.32.203., 2-(((2S,3R,4S,5R,6R)-3,5-Dihydroxy-6-(hydroxymethyl)-4-(4-(3,4,5-trifluorophenyl)-1H-1,2,3-triazol-1-yl)tetrahydro-2H-pyran-2-yl)thio)-N,3-diethyl-3-hydroxy-N-methylpentanamide]	1890		IC50 [1, 3]: 490 nM
CO[C@@H]1[C@@H](n2cc(-c3cc(F)c(F)c(F)c3)nn2)[C@@H](O)[C@@H](CO)O[C@H]1SC(C(=O)NC1CCOCC1)C1(O)CCC(F)(F)CC1 (stereo partly drawn) [Example 2.44.249.I., 2-(4,4-Difluoro-1-hydroxycyclohexyl)-2-(((2S,3R,4S,5R,6R)-5-hydroxy-6-(hydroxymethyl)-3-methoxy-4-(4-(3,4,5-trifluorophenyl)-1H-1,2,3-triazol-1-yl)tetrahydro-2H-pyran-2-yl)thio)-N-(tetrahydro-2H-pyran-4-yl)acetamide]	360		IC50 [1, 4]: 80 nM
CCN(C)C(=O)C(S[C@@H]1O[C@H](CO)[C@H](O)[C@H](n2cc(-c3cccc(F)c3)nn2)[C@H]1O)C1(O)CCOCC1 (stereo partly drawn) [Example 1.41.203., N-Ethyl-2-(((2S,3R,4S,5R,6R)-4-(4-(3-fluorophenyl)-1H-1,2,3-triazol-1-yl)-3,5-dihydroxy-6-(hydroxymethyl)tetrahydro-2H-pyran-2-yl)thio)-2-(4-hydroxytetrahydro-2H-pyran-4-yl)-N-methylacetamide]	160		IC50 ([1]; Table 11, hGal-3, read-out: IC50 (Gal-3 inhibition)): 130 nM
O=C(C(S[C@@H]1O[C@H](CO)[C@H](O)[C@H](n2cc(-c3cc(F)c(F)c(F)c3)nn2)[C@H]1O)C1(O)CCC1)N1CCC1 (stereo partly drawn) [Example 2.34.206., 1-(Azetidin-1-yl)-2-(((2S,3R,4S,5R,6R)-3,5-dihydroxy-6-(hydroxymethyl)-4-(4-(3,4,5-trifluorophenyl)-1H-1,2,3-triazol-1-yl)tetrahydro-2H-pyran-2-yl)thio)-2-(1-hydroxycyclobutyl)ethan-1-one]	2710	1200	
CCN(C)C(=O)C(S[C@@H]1O[C@H](CO)[C@H](O)[C@H](n2cc(-c3cc(F)c(F)c(F)c3)nn2)[C@H]1O)C1(O)CCC1 (stereo partly drawn) [Example 2.34.203., 2-(((2S,3R,4S,5R,6R)-3,5-Dihydroxy-6-(hydroxymethyl)-4-(4-(3,4,5-trifluorophenyl)-1H-1,2,3-triazol-1-yl)tetrahydro-2H-pyran-2-yl)thio)-N-ethyl-2-(1-hydroxycyclobutyl)-N-methylacetamide]	640	400	
CNC(=O)C(S[C@@H]1O[C@H](CO)[C@H](O)[C@H](n2cc(-c3cc(F)c(F)c(F)c3)nn2)[C@H]1OC)C1(O)CCC(F)(F)CC1 (stereo partly drawn) [Example 2.44.248.I., 2-(4,4-Difluoro-1-hydroxycyclohexyl)-2-(((2S,3R,4S,5R,6R)-5-hydroxy-6-(hydroxymethyl)-3-methoxy-4-(4-(3,4,5-trifluorophenyl)-1H-1,2,3-triazol-1-yl)tetrahydro-2H-pyran-2-yl)thio)-N-methylacetamide]	730		IC50 [1, 4]: 490 nM
CN(CC(C)(C)F)C(=O)[C@H](S[C@@H]1O[C@H](CO)[C@H](O)[C@H](n2cc(-c3cc(F)c(F)c(F)c3)nn2)[C@H]1O)C1(O)CCCCC1 [Example 2.39.222R., (R)-2-(((2S,3R,4S,5R,6R)-3,5-Dihydroxy-6-(hydroxymethyl)-4-(4-(3,4,5-trifluorophenyl)-1H-1,2,3-triazol-1-yl)tetrahydro-2H-pyran-2-yl)thio)-N-(2-fluoro-2-methylpropyl)-2-(1-hydroxycyclohexyl)-N-methylacetamide]	38100	10200	
(R)-2-(((2S,3R,4S,5R,6R)-3,5-Dihydroxy-6-(hydroxymethyl)-4-(4-(3,4,5-trifluorophenyl)-1H-1,2,3-triazol-1-yl)tetrahydro-2H-pyran-2-yl)thio)-2-(1-hydroxycyclohexyl)-N-methyl-N-(pyridin-2-ylmethyl)acetamide [Example 2.39.224R.]	2820	1400	
COCCN(C)C(=O)C(S[C@@H]1O[C@H](CO)[C@H](O)[C@H](n2cc(-c3cc(F)c(F)c(F)c3)nn2)[C@H]1O)C(C)(C)O (stereo partly drawn) [Example 2.31.229., 2-(((2S,3R,4S,5R,6R)-3,5-Dihydroxy-6-(hydroxymethyl)-4-(4-(3,4,5-trifluorophenyl)-1H-1,2,3-triazol-1-yl)tetrahydro-2H-pyran-2-yl)thio)-3-hydroxy-N-(2-methoxyethyl)-N,3-dimethylbutanamide]	800		IC50 [1, 3]: 110 nM
CCN(C(=O)C(S[C@@H]1O[C@H](CO)[C@H](O)[C@H](n2cc(-c3cc(F)c(F)c(F)c3)nn2)[C@H]1O)C1(O)CCOCC1)c1ccccc1 (stereo partly drawn) [Example 2.41.232., 2-(((2S,3R,4S,5R,6R)-3,5-Dihydroxy-6-(hydroxymethyl)-4-(4-(3,4,5-trifluorophenyl)-1H-1,2,3-triazol-1-yl)tetrahydro-2H-pyran-2-yl)thio)-N-ethyl-2-(4-hydroxytetrahydro-2H-pyran-4-yl)-N-phenylacetamide]	60		IC50 ([1]; Table 9, hGal-3, read-out: IC50 (Gal-3 inhibition)): 90 nM
CO[C@@H]1[C@@H](n2cc(-c3cc(F)c(F)c(F)c3)nn2)[C@@H](O)[C@@H](CO)O[C@H]1SC(C(=O)NC1CC(F)(F)C1)C1(O)CCC(F)(F)CC1 (stereo partly drawn) [Example 2.44.253.I., 2-(4,4-Difluoro-1-hydroxycyclohexyl)-N-(3,3-difluorocyclobutyl)-2-(((2S,3R,4S,5R,6R)-5-hydroxy-6-(hydroxymethyl)-3-methoxy-4-(4-(3,4,5-trifluorophenyl)-1H-1,2,3-triazol-1-yl)tetrahydro-2H-pyran-2-yl)thio)acetamide]	670		IC50 [1, 4]: 160 nM
